The values below come from patent publication US6506772B1, “Substituted [1,2,4]triazolo[1,5a]pyridine derivatives with activity as adenosine receptor ligands” (Hoffmann-La Roche Inc., priority 2000, dated 2003).

In one experiment the target is T1, HA1 adenosine receptor (Homo sapiens, UniProt P30542).
T1 sequence (P30542 1-326): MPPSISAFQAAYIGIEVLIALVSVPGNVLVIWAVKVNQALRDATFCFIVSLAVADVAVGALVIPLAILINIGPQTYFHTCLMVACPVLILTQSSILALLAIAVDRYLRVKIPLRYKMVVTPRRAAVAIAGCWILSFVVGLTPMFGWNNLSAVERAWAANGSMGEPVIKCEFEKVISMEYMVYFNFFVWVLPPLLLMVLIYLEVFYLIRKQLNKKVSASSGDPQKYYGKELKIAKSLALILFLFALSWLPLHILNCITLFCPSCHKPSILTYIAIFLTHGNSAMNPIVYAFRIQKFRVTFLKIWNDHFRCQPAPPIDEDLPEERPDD
Kind of experiment: Human adenosine A1 receptor affinity (Ki hA1). It is filed as binding. The following applies: affinity to human adenosine A1 receptor.

Experiment [1] concerns the target T2, human adenosine A2A receptor (Homo sapiens, UniProt P29274).
T2 construct: expressed in transfected cells; host or cells: CHO cells, Semliki Forest virus expression system; membrane preparation
Put plainly: Human adenosine A2A receptor [3H]-SCH-58261 binding assay. Conditions: for Ki: affinity to human adenosine A2A receptor, read-out: Ki HA2A; for selectivity (A1/A2a): calculated ratio of the affinity to the HA1 receptor to the HA2a receptor.

One may read the Ki as a dissociation constant, usually derived from enzyme kinetics or from competition with a known ligand.

T2 sequence (P29274 whole entry): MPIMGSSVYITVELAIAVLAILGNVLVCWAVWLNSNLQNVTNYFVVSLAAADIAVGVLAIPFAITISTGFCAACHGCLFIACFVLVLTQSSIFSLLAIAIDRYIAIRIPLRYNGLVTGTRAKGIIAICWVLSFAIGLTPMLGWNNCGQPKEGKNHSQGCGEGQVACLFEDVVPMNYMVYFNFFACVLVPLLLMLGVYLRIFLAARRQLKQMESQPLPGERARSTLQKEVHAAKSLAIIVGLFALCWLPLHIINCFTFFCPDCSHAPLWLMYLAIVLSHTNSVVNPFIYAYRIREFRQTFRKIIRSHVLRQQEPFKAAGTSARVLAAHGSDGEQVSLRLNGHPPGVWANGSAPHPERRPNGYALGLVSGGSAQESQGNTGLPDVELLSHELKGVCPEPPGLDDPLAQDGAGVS

In turn, `COc1ccc(-c2nc3cc(C(=O)N4CCCCC4)cc(N)n3n2)s1` [Example 66, [5-Amino-2-(5-methoxy-thiophen-2-yl)-[1,2,4]triazolo[1,5-a]pyridin-7-yl]-piperidin-1-yl-methanone] came in with a Ki at HA1 adenosine receptor of 623 nM. Also, in experiment [1], the Ki was 174 nM and the “selectivity (A1/A2a)” value is recorded as 3.6.

For `CCCCNC(=O)c1cc(N)n2nc(-c3ccc(OC)s3)nc2c1` [Example 67, 5-Amino-2-(5-methoxy-thiophen-2-yl)-[1,2,4]triazolo[1,5-a]pyridine-7-carboxylic acid butylamide], the figures for the Ki (on HA1 adenosine receptor; in experiment [1]) were 136 nM and 99.1 nM, respectively. Also, the “selectivity (A1/A2a)” value in experiment [1] was 1.4.

On HA1 adenosine receptor, `CCN(CC)C(=O)c1cc(N)n2nc(-c3ccc(OC)s3)nc2c1` [Example 68, 5-Amino-2-(5-methoxy-thiophen-2-yl)-[1,2,4]triazolo[1,5-a]pyridine-7-carboxylic acid diethylamide] yielded an inhibitory constant (Ki) of 717 nM. In experiment [1], the Ki was found to be 171 nM and the “selectivity (A1/A2a)” value is reported as 4.2.

`COc1ccc(-c2nc3cc(C(=O)NC4CCC4)cc(N)n3n2)s1` [Example 70, 5-Amino-2-(5-methoxy-thiophen-2-yl)-[1,2,4]triazolo[1,5-a]pyridine-7-carboxylic acid cyclobutylamide]: the Ki on HA1 adenosine receptor amounted to 148 nM; in experiment [1], 113 nM. Moreover, in experiment [1], the “selectivity (A1/A2a)” value is 1.3.

With `CCCNC(=O)c1cc(N)n2nc(-c3ccc(OC)s3)nc2c1` [Example 71, 5-Amino-2-(5-methoxy-thiophen-2-yl)-[1,2,4]triazolo[1,5-a]pyridine-7-carboxylic acid propylamide], the figures for the Ki (on HA1 adenosine receptor; in experiment [1]) were 180 nM and 64.9 nM, respectively. In addition, the “selectivity (A1/A2a)” value in experiment [1] was 2.8.

As for `CCCCN(Cc1ccccc1)C(=O)c1cc(N)n2nc(-c3ccc(OC)s3)nc2c1` [Example 73, 5-Amino-2-(5-methoxy-thiophen-2-yl)-[1,2,4]triazolo[1,5-a]pyridine-7-carboxylic acid benzyl-butyl-amide], the Ki on HA1 adenosine receptor was determined as 136 nM; in experiment [1], 37.4 nM. The “selectivity (A1/A2a)” value in experiment [1] was 3.6.

`COc1ccc(-c2nc3cc(C(=O)N(CCc4ccccc4)Cc4ccccc4)cc(N)n3n2)s1` [Example 75, 5-Amino-2-(5-methoxy-thiophen-2-yl)-[1,2,4]triazolo[1,5-a]pyridine-7-carboxylic acid benzyl-phenethyl-amide]: the Ki turned out to be 15.8 nM at HA1 adenosine receptor and 26.6 nM in experiment [1]. Besides, the “selectivity (A1/A2a)” value in experiment [1] was 0.6.

With `COc1ccc(-c2nc3cc(C(=O)N(C)CCc4ccccc4)cc(N)n3n2)s1` [Example 77, 5-Amino-2-(5-methoxy-thiophen-2-yl)-[1,2,4]triazolo[1,5-a]pyridine-7-carboxylic acid methyl-phenethyl-amide], the Ki on HA1 adenosine receptor is 295 nM. In addition, in experiment [1], the Ki was found to be 116 nM and the “selectivity (A1/A2a)” value is recorded as 2.5.

On to `COc1ccc(-c2nc3cc(C(=O)NCCc4ccccc4Cl)cc(N)n3n2)s1` [Example 78, 5-Amino-2-(5-methoxy-thiophen-2-yl)-[1,2,4]triazolo[1,5-a]pyridine-7-carboxylic acid [2-(2-chloro-phenyl)-ethyl]-amide], for which the figures for the Ki (on HA1 adenosine receptor; in experiment [1]) were 97.4 nM and 389 nM, respectively. Further, the “selectivity (A1/A2a)” value in experiment [1] is on record as 0.3.

Regarding `Nc1cc(C(=O)NCc2ccccc2Br)cc2nc(-c3cccnc3)nn12` [Example 79, 5-Amino-2-pyridin-3-yl-[1,2,4]triazolo[1,5-a]pyridine-7-carboxylic acid 2-bromo-benzylamide], the Ki at HA1 adenosine receptor came to 1400 nM; in experiment [1], 152 nM. Moreover, the “selectivity (A1/A2a)” value in experiment [1] is given as 9.2.

The molecule `CCCCNC(=O)c1cc(N)n2nc(-c3cccnc3)nc2c1` [Example 80, 5-Amino-2-pyridin-3-yl-[1,2,4]triazolo[1,5-a]pyridine-7-carboxylic acid butylamide] registered a Ki at HA1 adenosine receptor of 3770 nM. In experiment [1], the Ki was found to be 282 nM and the “selectivity (A1/A2a)” value is recorded as 13.4.

For the molecule `Nc1cc(C(=O)NC2CCC2)cc2nc(-c3cccnc3)nn12` [Example 81, 5-Amino-2-pyridin-3-yl-[1,2,4]triazolo[1,5-a]pyridine-7-carboxylic acid cyclobutylamide], the Ki at HA1 adenosine receptor came to 4390 nM; in experiment [1] it was 315 nM. In experiment [1], the “selectivity (A1/A2a)” value is 13.9.

At HA1 adenosine receptor, `CCCNC(=O)c1cc(N)n2nc(-c3cccnc3)nc2c1` [Example 82, 5-Amino-2-pyridin-3-yl-[1,2,4]triazolo[1,5-a]pyridine-7-carboxylic acid propylamide] had an inhibitory constant (Ki) of 5850 nM. In experiment [1], the Ki worked out at 309 nM and the “selectivity (A1/A2a)” value is recorded as 18.9.

With `Nc1cc(C(=O)NCc2ccccc2Cl)cc2nc(-c3ccc[nH]3)nn12` [Example 83, 5-Amino-2-(1H-pyrrol-2-yl)-[1,2,4]triazolo[1,5-a]pyridine-7-carboxylic acid 2-chloro-benzylamide], the Ki at HA1 adenosine receptor was found to be 1500 nM. Besides, in experiment [1], the Ki worked out at 130 nM and the “selectivity (A1/A2a)” value is on record as 11.6.

At HA1 adenosine receptor, `CCCCN(Cc1ccccc1)C(=O)c1cc(N)n2nc(-c3ccc[nH]3)nc2c1` [Example 84, 5-Amino-2-(1H-pyrrol-2-yl)-[1,2,4]triazolo[1,5-a]pyridine-7-carboxylic acid benzyl-butyl-amide] yielded a Ki of 4960 nM. In experiment [1], the Ki stood at 294 nM and the “selectivity (A1/A2a)” value is reported as 16.9.

At HA1 adenosine receptor, `CCN(Cc1ccccc1F)C(=O)c1cc(N)n2nc(-c3ccc[nH]3)nc2c1` [Example 85, 5-Amino-2-(1H-pyrrol-2-yl)-[1,2,4]triazolo[1,5-a]pyridine-7-carboxylic acid ethyl-(2-fluoro-benzyl)-amide] came in with a Ki of 1400 nM. For the same molecule, in experiment [1], the Ki amounted to 169 nM and the “selectivity (A1/A2a)” value was 8.3.

With `CC(C)N(Cc1ccccc1)C(=O)c1cc(N)n2nc(-c3cccnc3)nc2c1` [Example 86, 5-Amino-2-pyridin-3-yl-[1,2,4]triazolo[1,5-a]pyridine-7-carboxylic acid benzyl-isopropyl-amide], the Ki at HA1 adenosine receptor is 819 nM. Moreover, in experiment [1], the Ki was 252 nM and the “selectivity (A1/A2a)” value is listed as 3.2.

On to `COc1ccccc1CNC(=O)c1cc(N)n2nc(-c3cccnc3)nc2c1` [Example 87, 5-Amino-2-pyridin-3-yl-[1,2,4]triazolo[1,5-a]pyridine-7-carboxylic acid 2-methoxy-benzylamide], for which the affinity at HA1 adenosine receptor, expressed as Ki, was 1260 nM. For the same molecule, in experiment [1], the Ki is 240 nM and the “selectivity (A1/A2a)” value is 5.2.

In the case of `CCN(Cc1ccccc1)C(=O)c1cc(N)n2nc(-c3cccnc3)nc2c1` [Example 88, 5-Amino-2-pyridin-3-yl-[1,2,4]triazolo[1,5-a]pyridine-7-carboxylic acid benzyl-ethyl-amide], the inhibitory constant (Ki) on HA1 adenosine receptor is 993 nM. In experiment [1], the Ki worked out at 278 nM and the “selectivity (A1/A2a)” value is on record as 3.6.

Take `CCCCN(Cc1ccccc1)C(=O)c1cc(N)n2nc(-c3cccnc3)nc2c1` [Example 89, 5-Amino-2-pyridin-3-yl-[1,2,4]triazolo[1,5-a]pyridine-7-carboxylic acid benzyl-butyl-amide]: the Ki turned out to be 900 nM at HA1 adenosine receptor and 174 nM in experiment [1]. Also, the “selectivity (A1/A2a)” value in experiment [1] was 5.2.

For `Nc1cc(C(=O)N(CCc2ccccc2)Cc2ccccc2)cc2nc(-c3cccnc3)nn12` [Example 90, 5-Amino-2-pyridin-3-yl-[1,2,4]triazolo[1,5-a]pyridine-7-carboxylic acid benzyl-phenethyl-amide], the Ki is 239 nM at HA1 adenosine receptor and 144 nM in experiment [1]. Besides, the “selectivity (A1/A2a)” value in experiment [1] is listed as 1.7.

With `CCN(Cc1ccccc1F)C(=O)c1cc(N)n2nc(-c3cccnc3)nc2c1` [Example 91, 5-Amino-2-pyridin-3-yl-[1,2,4]triazolo[1,5-a]pyridine-7-carboxylic acid ethyl-(2-fluoro-benzyl)-amide], the values for the Ki (at HA1 adenosine receptor; in experiment [1]) were 815 nM and 144 nM, respectively. The “selectivity (A1/A2a)” value in experiment [1] is recorded as 5.7.

In turn, `COc1ccccc1CNC(=O)c1cc(N)n2nc(-c3ccc[nH]3)nc2c1` [Example 93, 5-Amino-2-(1H-pyrrol-2-yl)-[1,2,4]triazolo[1,5-a]pyridine-7-carboxylic acid 2-methoxy-benzylamide] had a Ki at HA1 adenosine receptor of 4860 nM. Further, in experiment [1], the inhibitory constant (Ki) turned out to be 304 nM and the “selectivity (A1/A2a)” value is given as 16.0.

Regarding `Nc1cc(C(=O)N(CCc2ccccc2)Cc2ccccc2)cc2nc(-c3ccc[nH]3)nn12` [Example 96, 5-Amino-2-(1H-pyrrol-2-yl)-[1,2,4]triazolo[1,5-a]pyridine-7-carboxylic acid benzyl-phenethyl-amide], at HA1 adenosine receptor, the Ki came to 729 nM. In experiment [1], the Ki is 217 nM and the “selectivity (A1/A2a)” value was 3.4.

At HA1 adenosine receptor, `COc1cc(CNC(=O)c2cc(N)n3nc(-c4nccs4)nc3c2)cc(OC)c1OC` [Example 97, 5-Amino-2-thiazol-2-yl-[1,2,4]triazolo[1,5-a]pyridine-7-carboxylic acid 3,4,5-trimethoxy-benzylamide] came in with a Ki of 2560 nM. In addition, in experiment [1], the Ki stood at 235 nM and the “selectivity (A1/A2a)” value was 10.9.

Consider `CCCCNC(=O)c1cc(N)n2nc(-c3ccoc3)nc2c1` [Example 98, 5-Amino-2-furan-3-yl-[1,2,4]triazolo[1,5-a]pyridine-7-carboxylic acid butylamide], for which the Ki at HA1 adenosine receptor was determined as 767 nM. In experiment [1], the Ki is 50.5 nM and the “selectivity (A1/A2a)” value is on record as 15.2.
